By inhibition is commonly meant the drop in the measured response relative to a control, in per cent.

The text below walks through data of patent US6140362A, “Method for inhibiting the growth of mammalian cells” (Rohm and Haas Company, priority 1997, dated 2000).

Like-named read-outs stand apart in the source and are kept apart here.

The assay concerns mouse lymphoma cell line L5178Y. Description: Growth inhibition of mouse lymphoma cells (L5178Y), 48 h. Conditions: for inhibition at 2 µM: 2 micromolar; for inhibition at 10 µM: read-out: Inhibition of growth; for inhibition at 20 µM: 20 micromolar; for inhibition at 50 µM: 50 micromolar; for inhibition at 4 µM: 4 micromolar. It is filed as cell-based. How it is done:
Effects of compounds on growth of mouse lymphoma cell line L5178Y, were determined as follows. Cells were grown in Fischer's medium (obtained from Life Technologies, Inc., Gaithersburg, Md.) containing 0.24 grams per liter (g/l) sodium pyruvate, 1.12 g/l surfactant (Pluronic F-68, from BASF Corporation, Parsippany, N.J.), and 10% by volume (10% v/v) heat-inactivated horse serum (obtained from Life Technologies, Inc) at 37° C. To 30 ml aliquots of cell suspension (2×10^4 cells per milliliter (mL)) in exponential growth phase were added test compounds dissolved in dimethylsulfoxide (DMSO) at various concentrations such that the final DMSO concentration in the mixtures was 0.25%. Tubes were gassed with 5% CO2 then incubated on a roller drum apparatus. After 48 hours the cells were treated with 0.1% trypsin (Life Technologies, Inc.,) for 10 minutes and counted in a Coulter Counter equipped with a 140 micrometer (μM) aperture. Percent inhibition of growth was calculated by comparing the number of cells in assays containing test compound with the number of cells in controls lacking the test compound.

Take `CC(C)(NC(=O)c1cccs1)C(=O)C(Br)Br` [Compound 49]: the inhibition at 2 µM (48 hours) was determined as 97%.

As for `CC(C)CC(C)(NC(=O)c1cc(Cl)cc(Cl)c1)C(=O)C(Br)Br` (stereo not drawn) [Compound 9], the inhibition at 2 µM (48 hours) amounted to 97%.

On to `CC(C)(NC(=O)c1cc(Cl)cc(Cl)c1)C(=O)CBr` [Compound 29], for which the inhibition at 10 µM (10 micromolar, 48 hours) stood at 95%.

Under “48 hours”, `CC(C)(NC(=O)c1cc(Cl)sc1Cl)C(=O)CCl` [Compound 52] came in with an inhibition at 20 µM of 89%.

The compound `CCC(C)(NC(=O)c1cc(F)c(F)c(F)c1)C(=O)CCl` (stereo not drawn) [Compound 37] displayed an inhibition at 50 µM (48 hours) of 96%.

`CC(C)C(C)(NC(=O)c1cc(Cl)cc(Cl)c1)C(=O)C(Br)Br` (stereo not drawn) [Compound 8] displayed an inhibition at 2 µM (48 hours) of 83%.

In the case of `CC(C)(NC(=O)C(Cl)(Cl)Cl)C(=O)CCl` [Compound 59], 4 µM produced 91% inhibition (48 hours).

The compound `CC(C)(NC(=O)c1ccccc1)C(=O)C(Br)Br` [Compound 16] gave an inhibition at 2 µM (48 hours) of 98%.

Compound `CCC(C)(NC(=O)c1cccc(C#N)c1)C(=O)CCl` (stereo not drawn) [Compound 20] showed an inhibition at 4 µM (48 hours) of 96%.

With `CCC(C)(NC(=O)c1cccc(C=NOC)c1)C(=O)CCl` (stereo not drawn) [Compound 24], the inhibition at 10 µM (10 micromolar, 48 hours) amounted to 96%.

The compound `CCC(C)(NC(=O)c1ccc2ncoc2c1)C(=O)CCl` (stereo not drawn) [Compound 53] gave an inhibition at 50 µM (48 hours) of 95%.

The compound `CCC(C)(NC(=O)c1ccccc1)C(=O)CCl` (stereo not drawn) [Compound 36] registered an inhibition at 50 µM (48 hours) of 91%.

Regarding `CCC(C)(NC(=O)c1ccc2ncsc2c1)C(=O)CCl` (stereo not drawn) [Compound 55], the inhibition at 10 µM (10 micromolar, 48 hours) turned out to be 97%.

`CCC(C)(NC(=O)c1ccc(Br)o1)C(=O)C(Br)Br` (stereo not drawn) [Compound 50]: the inhibition at 10 µM (10 micromolar, 48 hours) came out at 95%.

For `CCC(C)(NC(=O)c1ccc2ocnc2c1)C(=O)CCl` (stereo not drawn) [Compound 54], the inhibition at 50 µM (48 hours) came out at 36%.

As for `CCC(C)(NC(=O)c1cccnc1)C(=O)CCl` (stereo not drawn) [Compound 45], the inhibition at 50 µM (48 hours) turned out to be 36%.

Where the note is “48 hours”, `CCC(C)(NC(=O)c1cc(F)cc(F)c1)C(=O)CCl` (stereo not drawn) [Compound 34] gave an inhibition at 20 µM of 88%.

In turn, `CC(C)(NC(=O)c1cccs1)C(=O)CCl` [Compound 51] gave an inhibition at 50 µM (48 hours) of 95%.

Turning to `CC(C)(NC(=O)c1cc(Br)c(Br)s1)C(=O)CCl` [Compound 47], at 20 µM the inhibition (48 hours) was 96%.

The compound `CC(C)C(C)(NC(=O)c1cc(Cl)cc(Cl)c1)C(=O)CCl` (stereo not drawn) [Compound 38] registered an inhibition at 50 µM (48 hours) of 66%.

For the setting “48 hours”, `CCC(C)(NC(=O)c1cc(Cl)c(F)c(Cl)c1)C(=O)CCl` (stereo not drawn) [Compound 31] came in with an inhibition at 20 µM of 97%.

Compound `CCCCCC(C)(NC(=O)c1cc(Cl)cc(Cl)c1)C(=O)C(Br)Br` (stereo not drawn) [Compound 10] gave an inhibition at 2 µM (48 hours) of 96%.

Turning to `CC(C)(NC(=O)c1cc(Cl)cc(Cl)c1)C(=O)CN=C=S` [Compound 27], the inhibition at 10 µM (48 h) was determined as 61%.

Consider `CCC(C)(NC(=O)c1cc(Cl)c(N)c(C=NOC)c1)C(=O)CCl` (stereo not drawn) [Compound 18, 4-amino-3-chloro-5-methoxyiminomethyl-N-(3-chloro-1-ethyl-1-methyl-2-oxopropyl)benzamide], for which, under “48 hours”, at 2 µM the inhibition was 94%.

In turn, `CCCC(NC(=O)c1cc(Cl)cc(Cl)c1)C(=O)C(Br)Br` (stereo not drawn) [Compound 6] yielded an inhibition at 2 µM (48 hours) of 75%.

`CC(C)(NC(=O)c1ccccc1)C(=O)CCl` [Compound 39]: 50 µM produced 96% inhibition (48 hours).

As for `CCCC(C)(NC(=O)c1cc(Cl)cc(Cl)c1)C(=O)C(Br)Br` (stereo not drawn) [Compound 11], testing at 2 µM (48 hours) gave an inhibition of 88%.

On to `CC(C)(NC(=O)c1cc(Cl)nc(Cl)c1)C(=O)CCl` [Compound 43], for which at 4 µM the inhibition (48 hours) was 92%.

On to `CCC(C)(NC(=O)c1cc(Br)c(C)c(Br)c1)C(=O)CCl` (stereo not drawn) [Compound 21], for which testing at 4 µM (48 hours) gave an inhibition of 97%.

Compound `CCC(C)(NC(=O)c1cc(Cl)c(C)c(Br)c1)C(=O)CCl` (stereo not drawn) [Compound 30] displayed an inhibition at 20 µM (48 hours) of 97%.

For the compound `CCC(C)(NC(=O)c1cc(Cl)c2nc(C)oc2c1)C(=O)CCl` (stereo not drawn) [Compound 57], the inhibition at 10 µM (10 micromolar, 48 hours) amounted to 97%.

Compound `CC(C)(NC(=O)C1CCCCC1)C(=O)CCl` [Compound 58] showed an inhibition at 50 µM (48 hours) of 77%.

`CCC(C)(NC(=O)c1cc(Cl)cc(C#N)c1)C(=O)CCl` (stereo not drawn) [Compound 3] yielded an inhibition at 2 µM (48 hours) of 94%.
